Reference: patent US6423700B1, “17-halogenated 19-nor steroids, method and intermediates for preparing same, use as medicines and pharmaceutical compositions containing same” (Aventis Pharma S.A., priority 1998, dated 2002)
Several values for one entry are separate records, joined by “and”; a condition that tells them apart may be missing. Equal entries are not always repeated.

Tests used:
[1] = tested on: ovariectomized female rat; assay: Bone impact study in the ovariectomized female rat at the age of 3 months (tibia BMD, uterus weight, serum cholesterol); type: in vivo; conditions: OVX rat; for UTERUS Weight % / Cholesterol %: 4 weeks; for UTERUS Weight %: increase in % of uterus weight of OVX animals receiving solvent; for Cholesterol %: serum cholesterol change in % relative to OVX animals receiving solvent; for TIBIA BONE BMD %: OVX=0, SHAM=100
Method: Bone impact study of a product in the ovariectomized female rat at the age of 3 months The compounds are tested in order to determine their effect on the bone mass and on the formation and resorption activity in the model of the ovariectomized rat at the age of 3 months. The animals are treated in a preventive fashion. [table] 1—Product to be tested: Product of Example 1. vehicle(s): corn oil, 0.5% methylcellulose number of administrations: once/day; 5 days/week for 4 weeks administration route: oral route for the product 2—Reference product: 17β oestradiol is administered by subcutaneous route at a dose of 0.1 or 0.01 mg/kg/d in solution in a mixture of corn oil-benzyl alcohol (99:1, v/v) under a volume of 0.2 ml/kg. The study is carried out with female rats ovariectomized at the age of 3 months. The animals are kept in an air-conditioned room (temperature 20° C.±2° C.) and grouped by 4 into boxes. The animals receive, ad libitum, demineralized water and compressed foods (pellets: AO4CR-10 UAR). The 3 month old female rats weighing approximately 250 g are ovariectomized under anaesthesia with Imalgene 1000, at a dose of 100 mg/kg by intraperitoneal route (i.p.) and under a volume of 1 ml/kg. They also receive Nembutal (3 mg/kg i.p. under a volume of 0.3 ml/kg). The effects of the products are determined in a preventive treatment. They are administered immediately after the ovariectomy. Animals are distributed into groups of 8. Group 1: “SHAM” control rats receiving the vehicle or vehicles. Group 2: “OVX” control rats receiving the vehicle or vehicles. Groups X: “OVX” rats receiving respectively defined doses of the product or products to be tested. At the end of 4 weeks (duration of the study) the animals are decapitated by guillotine. The serums collected after centrifugation are preserved at −20° C. A lipidic balance will be established from the serous determinations of total cholesterol, of triglycerides and of phospholipids on a 500 μl aliquot of serum. Lowering of the serous cholesterol level is expressed in % relative to the level shown by the ovariectomized animals receiving only the solvent. The uteri are removed. The latter are weighed. The increase in weight is expressed in % of the weight of the uterus of ovariectomized animals receiving only the solvent. The bone mass (BMD or bone mineral density) is measured by biphotonic dual energy X-ray absorptiometry (DEXA). The measurements are carried out on bone excized and cleaned of all soft tissue. The BMD (bone mineral density) is measured on the whole bone as well as on the metaphyseal part at the level of the proximal extremity for the left tibia. This zone is defined as being the region which is richest in trabecular bone; and consequently, is the most sensitive to variations in bone volume and bone mineral density. The results are expressed in % according to the formula: […]

[2] = tested on: MCF-7 human mammary cells; assay: Effect on the proliferation of mammary cells (MCF-7, determination of the DNA); type: cell-based; set-up: key: Agonist: the effect of the oestradiol at 10^−10M (cell growth in the presence of oestradiol less cell growth in the presence of the solvent) determines the 100% agonist activity; Inactive: molecules inducing an identical cell growth to that observed with the solvent alone are classified as “inactive”; Inhibitor: those inducing a lower cell growth to that observed with the solvent are classified as “inhibitor”; conditions: 7 days culture in steroid-free medium; compared with oestradiol at 10^−10M = 100% agonist activity
Method: Effect on the Proliferation of Mammary Cells The proliferative activity of the molecules is studied in comparison to that of oestradiol on MCF-7 human mammary cells in culture. […] Cells undergo this severance two days before the start of the test. After 7 days culture in the presence of the products to be studied, the cell proliferation is evaluated by determination of the DNA. In each test, the effect of the oestradiol at 10^−10M (cell growth in the presence of oestradiol less cell growth in the presence of the solvent) determines the 100% agonist activity. The activity of the molecules is evaluated in comparison to this internal control.

[3] = 0.3 mg/kg po, listed as Ex. 1, 0.3 mg/kg

SMILES: COc1ccc2c(c1)CC[C@@H]1[C@@H]2[C@@H](c2ccc(OCCN3CCCC3)cc2)C[C@]2(C)[C@H](F)CC[C@@H]12
- melting point: 132 °C

SMILES: C[C@]12C[C@H](c3ccc(OCCN4CCCCC4)cc3)[C@@H]3c4ccc(O)cc4CC[C@H]3[C@@H]1CC=C2I.Cl
- melting point: 260 °C

SMILES: CC1CCN(CCOc2ccc([C@H]3C[C@]4(C)[C@H](F)CC[C@H]4[C@@H]4CCc5cc(O)ccc5[C@H]43)cc2)CC1.Cl
- melting point: 200 °C

SMILES: C[C@]12C[C@H](c3ccc(OCCN4CCCCC4)cc3)[C@@H]3c4ccc(O)cc4CC[C@H]3[C@@H]1CC[C@H]2F [Example 1, 17 alpha-fluoro-11 beta-[4-[2-(1-piperidinyl)ethoxy]phenyl]-estra-1,3,5(10)-trien-3-ol]
- UTERUS Weight % ([1]; 0.1 mg/kg po): 67%
- Cholesterol % ([1]; 0.1 mg/kg po): −49%
- TIBIA BONE BMD % ([1]; 0.1 mg/kg po, once/day 5 days/week 4 weeks): 57%
- UTERUS Weight % [1, 3]: 70% and 41%
- Cholesterol % [1, 3]: −59% and −51%
- TIBIA BONE BMD % ([1]; 0.3 mg/kg po, once/day 5 days/week 4 weeks, listed as Ex. 1, 0.3 mg/kg): 71% and 73%
- UTERUS Weight % ([1]; 1.0 mg/kg po): 93%
- Cholesterol % ([1]; 1.0 mg/kg po): −61%
- TIBIA BONE BMD % ([1]; 1.0 mg/kg po, once/day 5 days/week 4 weeks): 72%
- ACTIVITY (proliferative activity on MCF-7 cells) [2]: Inactive

SMILES: C[C@]12C[C@H](c3ccc(OCCN4CCCCC4)cc3)[C@@H]3c4ccc(O)cc4CC[C@H]3[C@@H]1CC[C@H]2F.Cl [Example 2, 17 alpha-fluoro-11-beta-[4-[2-(1-piperidinyl)ethoxy]phenyl]-estra-1,3,5(10)-trien-3-ol hydrochloride]
- ACTIVITY (proliferative activity on MCF-7 cells) [2]: Inactive

SMILES: C[C@]12CC[C@@H]3c4ccc(O)cc4CC[C@H]3[C@@H]1CC[C@@H]2O [Oestradiol, 17β oestradiol, reference compound]
- TIBIA BONE BMD % ([1]; 0.01 mg/kg s.c., 4 weeks preventive): 95%
- UTERUS Weight % ([1]; 0.01 mg/kg s.c.): 317%
- Cholesterol % ([1]; 0.01 mg/kg s.c.): −16%
- TIBIA BONE BMD % ([1]; 0.1 mg/kg s.c., 4 weeks preventive): 139%
- UTERUS Weight % ([1]; 0.1 mg/kg s.c.): 220%
- Cholesterol % ([1]; 0.1 mg/kg s.c.): −3%
- ACTIVITY (proliferative activity on MCF-7 cells) [2]: Agonist
